Biological target: T1, ERα (Homo sapiens, UniProt P03372)
T1 construct: host or cells: MCF7
T1 sequence (P03372 1-595): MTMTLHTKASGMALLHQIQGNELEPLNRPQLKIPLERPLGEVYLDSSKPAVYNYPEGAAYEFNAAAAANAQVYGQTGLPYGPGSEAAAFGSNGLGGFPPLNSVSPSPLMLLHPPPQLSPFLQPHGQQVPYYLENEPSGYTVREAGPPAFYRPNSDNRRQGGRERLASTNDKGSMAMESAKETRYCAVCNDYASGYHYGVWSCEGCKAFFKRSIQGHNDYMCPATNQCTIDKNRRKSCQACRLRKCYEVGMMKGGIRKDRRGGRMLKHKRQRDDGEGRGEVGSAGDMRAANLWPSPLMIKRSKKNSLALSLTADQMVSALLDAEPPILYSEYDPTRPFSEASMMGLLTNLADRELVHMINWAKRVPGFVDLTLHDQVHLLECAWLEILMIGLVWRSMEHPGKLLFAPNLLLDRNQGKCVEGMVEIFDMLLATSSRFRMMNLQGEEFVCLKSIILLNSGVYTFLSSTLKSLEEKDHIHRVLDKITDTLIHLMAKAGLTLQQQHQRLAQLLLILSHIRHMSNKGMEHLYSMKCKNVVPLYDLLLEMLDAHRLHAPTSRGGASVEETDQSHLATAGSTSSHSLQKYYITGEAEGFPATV
Assay: Estrogen receptor degradation activity: breast cancer cell ERα in cell western assay (MCF7 cells)
Format: cell-based
Conditions: for % Degradation At 0.3 μM: 4 hours, relative to fulvestrant 0.1 μM positive control; for DC50: 4 hours post compound addition, concentration which degrades 50% of the estrogen receptor, read-out: Degradation IC50
In short: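 In-cell western readout: ERα immunofluorescence (Alexa 488) normalised to DNA signal (Syto-64) after formalin fixation. Compounds dosed for 4 h on MCF7 cells in stripped-serum, phenol-red-free medium over nine 1:5 steps, 0.3 to […] final; fulvestrant 0.1 μM control. IC50 in nM for 50% ERα degradation.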

Row | % Degradation At 0.3 μM [%] | DC50 [nM] | SMILES
1 | 92 | 1.2 | O=C(O)c1ccc2c(c1)CCCC(c1ccc3c(c1F)CCC3)=C2c1ccc(C=C2CN(CCC(F)F)C2)cc1 [Example 161, 9-(4-((1-(3,3-difluoropropyl)azetidin-3-ylidene)methyl)phenyl)-8-(4-fluoro-2,3-dihydro-1H-inden-5-yl)-6,7-dihydro-5H-benzo[7]annulene-3-carboxylic acid]
2 | 93 | 1.9 | O=C(O)c1ccc2c(c1)CCCC(c1cc(F)cc3c1CCC3)=C2c1ccc(C=C2CN(CCC(F)F)C2)cc1 [Example 162, 9-(4-((1-(3,3-difluoropropyl)azetidin-3-ylidene)methyl)phenyl)-8-(6-fluoro-2,3-dihydro-1H-inden-4-yl)-6,7-dihydro-5H-benzo[7]annulene-3-carboxylic acid]
3 | 98 | 0.8 | O=C(O)c1ccc2c(c1)CCCC(c1cccc3c1CCC3)=C2c1ccc(C=C2CN(CCC(F)F)C2)cc1 [Example 163, 9-(4-((1-(3,3-difluoropropyl)azetidin-3-ylidene)methyl)phenyl)-8-(2,3-dihydro-1H-inden-4-yl)-6,7-dihydro-5H-benzo[7]annulene-3-carboxylic acid]
4 | 93 | 1.4 | O=C(O)c1ccc2c(c1)CCCC(c1cccc3c1CCC3(F)F)=C2c1ccc(C=C2CN(CCC(F)F)C2)cc1 [Example 164, 8-(1,1-difluoro-2,3-dihydro-1H-inden-4-yl)-9-(4-((1-(3,3-difluoropropyl)azetidin-3-ylidene)methyl)phenyl)-6,7-dihydro-5H-benzo[7]annulene-3-carboxylic acid]
5 | 96 | 1.9 | O=C(O)c1ccc2c(c1)CCCC(c1ccc(F)c3c1CCC3)=C2c1ccc(C=C2CN(CCC(F)F)C2)cc1 [Example 165, 9-(4-((1-(3,3-difluoropropyl)azetidin-3-ylidene)methyl)phenyl)-8-(7-fluoro-2,3-dihydro-1H-inden-4-yl)-6,7-dihydro-5H-benzo[7]annulene-3-carboxylic acid]
6 | 89 | 1.1 | O=C(O)c1ccc2c(c1)CCCC(Cc1ccccc1)=C2c1ccc(C=C2CN(CCCF)C2)cc1 [Example 167, 8-benzyl-9-(4-((1-(3-fluoropropyl)azetidin-3-ylidene)methyl)phenyl)-6,7-dihydro-acid]
7 | 95 | 0.3 | O=C(O)c1ccc2c(c1)CCCC(CCc1ccccc1)=C2c1ccc(C=C2CN(CCCF)C2)cc1 [Example 168, 9-(4-((1-(3-fluoropropyl)azetidin-3-ylidene)methyl)phenyl)-8-phenethyl-6,7-dihydro-5H-benzo[7]annulene-3-carboxylic acid]
8 | 90 | 0.3 | O=C(O)c1ccc2c(c1)CCCC(CC1CCC1)=C2c1ccc(C=C2CN(CCCF)C2)cc1 [Example 169, 8-(cyclobutylmethyl)-9-(4-((1-(3-fluoropropyl)azetidin-3-ylidene)methyl)phenyl)-6,7-dihydro-5H-benzo[7]annulene-3-carboxylic acid]
9 | 85 | 0.2 | Oc1ccc2c(c1)CCCC(c1ccc(Cl)cc1Cl)=C2c1ccc(C=C2CN(CCCF)C2)cc1 [Example 170, 8-(2,4-dichlorophenyl)-9-(4-((1-(3-fluoropropyl)azetidin-3-ylidene)methyl)phenyl)-6,7-dihydro-5H-benzo[7]annulen-3-ol]
10 | 86 | 2.6 | O=C(O)c1ccc2c(c1)CCCC([C@H]1[C@@H]3CCCC[C@@H]31)=C2c1ccc(C=C2CN(CCCF)C2)cc1 [Example 174, 84(1R,6S,70-bicyclo[4.1.0]heptan-7-yl)-9-(4-((1-(3-fluoropropyl)azetidin-3-ylidene)methyl)phenyl)-6,7-dihydro-5H-benzo[7]annulene-3-carboxylic acid]
11 | 87 | 0.3 | O=C(O)c1ccc2c(c1)CCCC(C13CCCC1C3)=C2c1ccc(C=C2CN(CCCF)C2)cc1 (centres unmarked) [Example 175, 8-(bicyclo[3.1.0]hexan-1-yl)-9-(4-((1-(3-fluoropropyl)azetidin-3-ylidene)methyl)phenyl)-6,7-dihydro-5H-benzo[7]annulene-3-carboxylic acid]
12 | 93 | 0.3 | O=C(O)c1ccc2c(c1)CCCC(C1CC13CCC3)=C2c1ccc(C=C2CN(CCCF)C2)cc1 (centres unmarked) [Example 176, 9-(4-((1-(3-fluoropropyl)azetidin-3-ylidene)methyl)phenyl)-8-(spiro[2.3]hexan-1-yl)-6,7-dihydro-5H-benzo[7]annulene-3-carboxylic acid]
13 | 92 | 1 | O=C(O)c1ccc2c(c1)CCCC(c1cccc3c1CCCC3)=C2c1ccc(C=C2CN(CCCF)C2)cc1 [Example 177, 9-(4-((1-(3-fluoropropyl)azetidin-3-ylidene)methyl)phenyl)-8-(5,6,7,8-tetrahydronaphthalen-1-yl)-6,7-dihydro-5H-benzo[7]annulene-3-carboxylic acid]
14 | 95 | 1.4 | O=C(O)c1ccc2c(c1)CCCC(C1CC3CCC(C3)C1)=C2c1ccc(C=C2CN(CCCF)C2)cc1 (centres unmarked) [Example 178, 8-(bicyclo[3.2.1]octan-3-yl)-9-(4-((1-(3-fluoropropyl)azetidin-3-ylidene)methyl)phenyl)-6,7-dihydro-5H-benzo[7]annulene-3-carboxylic acid]
15 | 90 | 0.5 | O=C(O)c1ccc2c(c1)CCCC(c1cccc(Cl)c1)=C2c1ccc(C=C2CN(CCCF)C2)cc1 [Example 180, 8-(3-chlorophenyl)-9-(4-((1-(3-fluoropropyl)azetidin-3-ylidene)methyl)phenyl)-6,7-dihydro-5H-benzo[7]annulene-3-carboxylic acid]
16 | 91 | 0.5 | O=C(O)c1ccc2c(c1)CCCC(c1ccc(Cl)cc1)=C2c1ccc(C=C2CN(CCCF)C2)cc1 [Example 181, 8-(4-chlorophenyl)-9-(4-((1-(3-fluoropropyl)azetidin-3-ylidene)methyl)phenyl)-6,7-dihydro-5H-benzo[7]annulene-3-carboxylic acid]
17 | 89 | 0.6 | Cl.O=C(O)c1ccc2c(c1)CCCC(c1cccc(C(F)(F)F)c1)=C2c1ccc(C=C2CN(CCCF)C2)cc1 [Example 182, 9-(4-((1-(3-fluoropropyl)azetidin-3-ylidene)methyl)phenyl)-8-(3-(trifluoromethyl)phenyl)-6,7-dihydro-5H-benzo[7]annulene-3-carboxylic acid hydrochloride]
18 | 92 | 0.4 | Cl.O=C(O)c1ccc2c(c1)CCCC(c1ccccc1C(F)(F)F)=C2c1ccc(C=C2CN(CCCF)C2)cc1 [Example 183, 9-(4-((1-(3-fluoropropyl)azetidin-3-ylidene)methyl)phenyl)-8-(2-(trifluoromethyl)phenyl)-6,7-dihydro-5H-benzo[7]annulene-3-carboxylic acid hydrochloride]
19 | 90 | 0.5 | Cl.O=C(O)c1ccc2c(c1)CCCC(c1ccc(C(F)(F)F)cc1)=C2c1ccc(C=C2CN(CCCF)C2)cc1 [Example 185, 9-(4-((1-(3-fluoropropyl)azetidin-3-ylidene)methyl)phenyl)-8-(4-(trifluoromethyl)phenyl)-6,7-dihydro-5H-benzo[7]annulene-3-carboxylic acid hydrochloride]

From patent publication US12612360B2 (Sanofi, priority 2020, dated 2026)
